Measurements reported in patent publication US12378224B2 (Dong-A Socio Holdings Co., Ltd., priority 2016, dated 2025).

Target: human MER (528-end) (Homo sapiens (Human), UniProt Q12866)
Assay: HTRF Kinase Activity Biochemical Assay (KinEASE-TK)
Conditions: 10 uM ATP
Outline: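 Activity read-out is the HTRF ratio (665 nm over 620 nm emission, ×10,000; excitation 340 nm) after 1 h detection with 0.375 nM Eu3+-cryptate anti-TK antibody plus 0.062 uM SA-XL665. Preceding kinase step: human MER (528-end), biotinylated TK substrate, 1 h, room temperature.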

Sequence of human MER (528-end) (Q12866 528-999 limits assumed): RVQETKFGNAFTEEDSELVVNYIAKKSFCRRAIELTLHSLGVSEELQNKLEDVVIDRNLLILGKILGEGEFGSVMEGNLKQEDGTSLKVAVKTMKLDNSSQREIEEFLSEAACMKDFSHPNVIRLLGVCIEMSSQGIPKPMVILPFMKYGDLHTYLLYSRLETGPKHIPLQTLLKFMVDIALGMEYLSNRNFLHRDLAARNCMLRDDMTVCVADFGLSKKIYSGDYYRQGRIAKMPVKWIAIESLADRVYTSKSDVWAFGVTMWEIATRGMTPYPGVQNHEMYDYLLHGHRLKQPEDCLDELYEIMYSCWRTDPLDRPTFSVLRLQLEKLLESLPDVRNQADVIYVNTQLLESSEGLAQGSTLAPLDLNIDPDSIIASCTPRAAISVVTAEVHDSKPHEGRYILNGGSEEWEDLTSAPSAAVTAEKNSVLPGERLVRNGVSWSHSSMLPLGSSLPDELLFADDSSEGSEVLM

IC50 [nM] | SMILES
100 to 1000 | Cn1cc(-c2cnc(N)c(C(=O)N[C@@H]3CCN(C(=O)c4ccc(-c5ccc(Oc6ccc(N)nc6)cc5)cc4)C3)c2)cn1 [Example 813, (R)-2-amino-N-(1-(4′-((6-aminopyridin-3-yl)oxy)-[1,1′-biphenyl]-4-carbonyl)pyrrolidin-3-yl)-5-(1-methyl-1H-pyrazol-4-yl)nicotinamide]
100 to 1000 | Cn1cc(-c2cnc(N)c(C(=O)N[C@@H]3CCN(C(=O)c4ccc(-c5ccc(CC#N)cc5)cc4)C3)c2)cn1 [Example 676, (R)-2-amino-N-(1-(4′-(cyanomethyl)-[1,1′-biphenyl]-4-carbonyl)pyrrolidin-3-yl)-5-(1-methyl-1H-pyrazol-4-yl)nicotinamide]
> 1000 | Cn1cc(-c2cnc(N)c(C(=O)N[C@@H]3CCN(C(=O)Oc4ccc(Cl)cc4N)C3)c2)cn1 [Example 99, 2-amino-4-chlorophenyl (R)-3-(2-amino-5-(1-methyl-1H-pyrazol-4-yl)nicotinamido)pyrrolidine-1-carboxylate]
> 1000 | Cn1cc(-c2cnc(N)c(C(=O)N[C@@H]3CCN(C(=O)Oc4ccc(N)c(Cl)c4)C3)c2)cn1 [Example 89, 4-amino-3-chlorophenyl (R)-3-(2-amino-5-(1-methyl-1H-pyrazol-4-yl)nicotinamido)pyrrolidine-1-carboxylate]
100 to 1000 | Cc1nn(C)c(C)c1-c1ccc(C(=O)N2CC[C@@H](NC(=O)c3cc(-c4cnn(C)c4)cnc3N)C2)cc1 [Example 507, (R)-2-amino-5-(1-methyl-1H-pyrazol-4-yl)-N-(1-(4-(1,3,5-trimethyl-1H-pyrazol-4-yl)benzoyl)pyrrolidin-3-yl)nicotinamide]
100 to 1000 | Cc1csc(-c2ccc(C(=O)N3CC[C@@H](NC(=O)c4cc(-c5cnn(C)c5)cnc4N)C3)cc2)n1 [Example 544, (R)-2-amino-5-(1-methyl-1H-pyrazol-4-yl)-N-(1-(4-(4-methylthiazol-2-yl)benzoyl)pyrrolidin-3-yl)nicotinamide]
100 to 1000 | Cn1cc(-c2cnc(N)c(C(=O)N[C@@H]3CCN(C(=O)c4ccc(-c5cc(Cl)c(F)c(Cl)c5)cc4)C3)c2)cn1 [Example 664, (R)-2-amino-N-(1-(3′,5′-dichloro-4′-fluoro-[1,1′-biphenyl]-4-carbonyl)pyrrolidin-3-yl)-5-(1-methyl-1H-pyrazol-4-yl)nicotinamide]
100 to 1000 | Cn1cc(-c2cnc(N)c(C(=O)N[C@@H]3CCN(C(=O)c4ccc(-c5ccsc5)cc4)C3)c2)cn1 [Example 358, (R)-2-amino-5-(1-methyl-1H-pyrazol-4-yl)-N-(1-(4-(thiophen-3-yl)benzoyl)pyrrolidin-3-yl)nicotinamide]
100 to 1000 | Cn1cc(-c2cnc(N)c(C(=O)N[C@@H]3CCN(C(=O)c4ccc(-c5ccc(Oc6nn[nH]n6)cc5)cc4)C3)c2)cn1 [Example 814, (R)—N-(1-(4′-((2H-tetrazol-5-yl)oxy)-[1,1′-biphenyl]-4-carbonyl)pyrrolidin-3-yl)-2-amino-5-(1-methyl-1H-pyrazol-4-yl)nicotinamide]
> 1000 | Cn1cc(-c2cnc(N)c(C(=O)N[C@@H]3CCN(C(=O)c4cccc(-c5cccc(Cn6cccn6)c5)c4)C3)c2)cn1 [Example 459, (R)—N-(1-(3′-((1H-pyrazol-1-yl)methyl)-[1,1′-biphenyl]-3-carbonyl)pyrrolidin-3-yl)-2-amino-5-(1-methyl-1H-pyrazol-4-yl)nicotinamide]
100 to 1000 | CS(=O)(=O)Nc1ccc(-c2cnc(N)c(C(=O)N[C@@H]3CCN(C(=O)c4ccc(-c5ccccc5Cl)cc4)C3)c2)cc1 [Example 576, (R)-2-amino-N-(1-(2′-chloro-[1,1′-biphenyl]-4-carbonyl)pyrrolidin-3-yl)-5-(4-(methylsulfonamido)phenyl)nicotinamide]
> 1000 | CSc1ccc(C(=O)N2CC[C@@H](NC(=O)c3cc(-c4cnn(C)c4)cnc3N)C2)cc1 [Example 420, (R)-2-amino-5-(1-methyl-1H-pyrazol-4-yl)-N-(1-(4-(methylthio)benzoyl)pyrrolidin-3-yl)nicotinamide]
> 1000 | Cn1cc(-c2cnc(N)c(C(=O)N[C@@H]3CCN(C(=O)Oc4cccc5ccccc45)C3)c2)cn1 [Example 68, naphthalen-1-yl (R)-3-(2-amino-5-(1-methyl-1H-pyrazol-4-yl)nicotinamido)pyrrolidine-1-carboxylate]
100 to 1000 | Cn1cc(-c2cnc(N)c(C(=O)N[C@@H]3CCN(C(=O)c4ccc(-c5ccccc5Cl)cn4)C3)c2)cn1 [Example 395, (R)-2-amino-N-(1-(5-(2-chlorophenyl)picolinoyl)pyrrolidin-3-yl)-5-(1-methyl-1H-pyrazol-4-yl)nicotinamide]

Second part, the compound before the results:

SMILES | IC50 [nM]
Cn1cc(-c2cnc(N)c(C(=O)N[C@@H]3CCN(Cc4cc(Cl)cc(Cl)c4)C3)c2)cn1 [Example 224, (R)-2-amino-N-(1-(3,5-dichlorobenzyl)pyrrolidin-3-yl)-5-(1-methyl-1H-pyrazol-4-yl)nicotinamide] | > 1000
Cc1cc(C)cc(OC(=O)N2CC[C@@H](NC(=O)c3cc(-c4cnn(C)c4)cnc3N)C2)c1 [Example 91, 3,5-dimethylphenyl (R)-3-(2-amino-5-(1-methyl-1H-pyrazol-4-yl)nicotinamido)pyrrolidine-1-carboxylate] | > 1000
CCc1ccc(CN2CC[C@@H](NC(=O)c3cc(-c4cnn(C)c4)cnc3N)C2)cc1 [Example 211, (R)-2-amino-N-(1-(4-ethylbenzyl)pyrrolidin-3-yl)-5-(1-methyl-1H-pyrazol-4-yl)nicotinamide] | > 1000
Cn1cc(-c2cnc(N)c(C(=O)N[C@@H]3CCN(C(=S)Nc4ccc([N+](=O)[O-])cc4)C3)c2)cn1 [Example 47, (R)-2-amino-5-(1-methyl-1H-pyrazol-4-yl)-N-(1-((4-nitrophenyl)carbamothioyl)pyrrolidin-3-yl)nicotinamide] | > 1000
Cn1cc(-c2cnc(N)c(C(=O)N[C@@H]3CCN(c4nc5ccccc5[nH]4)C3)c2)cn1 [Example 133, (R)—N-(1-(1H-benzo[d]imidazol-2-yl)pyrrolidin-3-yl)-2-amino-5-(1-methyl-1H-pyrazol-4-yl)nicotinamide] | > 1000
Nc1ncc(Br)cc1C(=O)N[C@@H]1CCN(C(=O)Oc2cccc(-c3ccccc3)c2)C1 [Example 85, [1,1′-biphenyl]-3-yl (R)-3-(2-amino-5-bromonicotinamido)pyrrolidine-1-carboxylate] | > 1000
Nc1ncc(-c2cnn(C3CCNCC3)c2)cc1C(=O)N[C@@H]1CCN(Cc2ccc(F)cc2)C1 [Example 153, (R)-2-amino-N-(1-(4-fluorobenzyl)pyrrolidin-3-yl)-5-(1-(piperidin-4-yl)-1H-pyrazol-4-yl)nicotinamide] | 100 to 1000
COc1ccccc1CC(=O)N1CC[C@@H](NC(=O)c2cc(-c3cnn(C)c3)cnc2N)C1 [Example 436, (R)-2-amino-N-(1-(2-(2-methoxyphenyl)acetyl)pyrrolidin-3-yl)-5-(1-methyl-1H-pyrazol-4-yl)nicotinamide] | > 1000
Cn1cc(-c2cnc(N)c(C(=O)N[C@@H]3CCN(C(=O)Oc4ccc(Oc5ccc([N+](=O)[O-])cc5)cc4)C3)c2)cn1 [Example 111, 4-(4-nitrophenoxy)phenyl (R)-3-(2-amino-5-(1-methyl-1H-pyrazol-4-yl)nicotinamido)pyrrolidine-1-carboxylate] | > 1000
COc1cccc(CN2CC[C@@H](NC(=O)c3cc(-c4cnn(C)c4)cnc3N)C2)c1 [Example 209, (R)-2-amino-N-(1-(3-methoxybenzyl)pyrrolidin-3-yl)-5-(1-methyl-1H-pyrazol-4-yl)nicotinamide] | > 1000
Cn1cc(-c2cnc(N)c(C(=O)N[C@@H]3CCN(C(=O)Nc4cc(Cl)cc(Cl)c4)C3)c2)cn1 [Example 34, (R)-2-amino-N-(1-((3,5-dichlorophenyl)carbamoyl)pyrrolidin-3-yl)-5-(1-methyl-1H-pyrazol-4-yl)nicotinamide] | 100 to 1000
Cn1cc(-c2cnc(N)c(C(=O)N[C@@H]3CCN(C(=O)Oc4cccc(-c5ccc(CNCCCO)cc5)c4)C3)c2)cn1 [Example 328, 4′-(((3-hydroxypropyl)amino)methyl)-[1,1′-biphenyl]-3-yl (R)-3-(2-amino-5-(1-methyl-1H-pyrazol-4-yl)nicotinamido)pyrrolidine-1-carboxylate] | 100 to 1000
Cn1cc(-c2cnc(N)c(C(=O)N[C@@H]3CCN(C(=S)Nc4cccc(Br)c4)C3)c2)cn1 [Example 52, (R)-2-amino-N-(1-((3-bromophenyl)carbamothioyl)pyrrolidin-3-yl)-5-(1-methyl-1H-pyrazol-4-yl)nicotinamide] | > 1000
CCc1cc(CO[C@H]2CN(C(=O)c3cccc(-c4ccccc4)c3)C[C@@H]2NC(=O)c2cc(-c3cnn(C)c3)cnc2N)ccc1C [Example 675, N-((3S,4S)-1-([1,1′-biphenyl]-3-carbonyl)-4-((3-ethyl-4-methylbenzyl)oxy)pyrrolidin-3-yl)-2-amino-5-(1-methyl-1H-pyrazol-4-yl)nicotinamide] | > 1000
Cn1cc(-c2cnc(N)c(C(=O)N[C@@H]3CCN(C(=O)NC4CCC(OCc5ccccc5)C4)C3)c2)cn1 (stereo partly drawn) [Example 41, 2-amino-N-((3R)-1-((3-(benzyloxy)cyclopentyl)carbamoyl)pyrrolidin-3-yl)-5-(1-methyl-1H-pyrazol-4-yl)nicotinamide] | > 1000
Cn1cc(-c2cnc(N)c(C(=O)N[C@@H]3CCN(Cc4ccc(Cl)cc4)C3)c2)cn1 [Example 210, (R)-2-amino-N-(1-(4-chlorobenzyl)pyrrolidin-3-yl)-5-(1-methyl-1H-pyrazol-4-yl)nicotinamide] | 100 to 1000
Cn1cc(-c2cnc(N)c(C(=O)N[C@@H]3CCN(C(=O)Oc4cccc(-c5ccc(CN6CCC[C@H]6C(N)=O)cc5)c4)C3)c2)cn1 [Example 325, 4′-(((S)-2-carbamoylpyrrolidin-1-yl)methyl)-[1,1′-biphenyl]-3-yl (R)-3-(2-amino-5-(1-methyl-1H-pyrazol-4-yl)nicotinamido)pyrrolidine-1-carboxylate] | > 1000
